Bounds are passed on as bounds.

The test system of the first test is IFN-a/Jak1Tyk2. The experiment in a line: Co-stimulation assay in lysed whole blood: IFNa (JAK1/TYK2) stimulated STAT1 phosphorylation. Type of test: cell-based. The conditions noted are these: 20 min, lysed human whole blood, IFNa 100 ng/mL + GM-CSF 10 ng/mL, pSTAT1 by flow cytometry. As to the method: Dilute RBC lysis buffer to 1× in distilled water. Add 2 mL blood to 38 mL of 1×RBC-lysis buffer. Incubate for 15 mins at RT, in dark. Spin at 300 g, 5 mins, to collect the pellet. Re-lyse if necessary. Re-suspend pellet in 5 mL of cRPMI.
Aliquot 80 μL of lysed human blood in to wells of 96 deep-well plate. Add 10 μl of (10× conc.) of different concentrations of compounds to all wells except controls (unstained and unstimulated) and mix it with the help of 100 uL multichannel. Add 10 uL of RPMI media in controls. For dilution of compounds and dilution range please refer Appendix. Incubate on water bath or CO2 incubator for 1 hour at 37° C. Add 10 μl of (10× conc.) of cytokine mix (GM-CSF and IFNa) (final conc. 10 ng/mL of GM-CSF and 100 ng/mL of IFNa) to each well except unstimulated and unstained controls and incubate further for 20 minutes on water bath at 37° C.
Add 900 μL of prewarmed 1× Fix/Lyse solution (Appendix) and mix it properly using 1000 μl multichannel, incubate further on water bath at 37° C. for 10 minutes (which includes time of addition). Centrifuge at 800×g for 5 minutes at 40° C.; remove 900 uL of supernatant and add 900 μL of 1×PBS. Centrifuge at 800×g for 5 minutes at 40° C., remove 900 μL of supernatant. Wash one more time with 900 μL of PBS (optional) and resuspend pellets in 100 uL of PBS.
Disrupt the pellet by gentle tapping and resuspend in 1000 μL of BD Phosflow Perm Buffer III and incubate plate on ice for 30 minutes. Centrifuge plate at 800×g for 5 minutes at 40° C. Wash two more times with 1000 μL of BD Pharmingen Stain Buffer.
Disrupt the pellet by gentle tapping. Resuspend pellets in 100 uL of Stain Buffer and add 5 μL of pSTAT5_AF488 Ab and 5 uL of pSTAT1_PE in all wells except unstained control and mix properly using 200 μl multichannel, incubate overnight at […]. Add 900 μL of wash buffer and centrifuge at 1800 rpm for 3 minutes at […]. Wash one more time with 1000 μL of BD Pharmingen Stain Buffer. Finally resuspend the pellet in 300 uL of BD Pharmingen Stain Buffer. Transfer the cells to 96-well v-bottom plate and acquire the cells in Beckman Coulter CytExpert. Acquiring cells in Flow Cytometer: Keep the threshold value to 250 and cell concentration should not exceed 100-500 cells/μL. Acquire at least 5,000-10,000 cells.
Cytokine dilution: 1) GM-CSF Stock at 100 ug/mL. Prepare an intermediate dilution of 1 ug/mL by adding 2 uL of stock into 198 uL of cRPMI. Further dilute to 100 ng/mL by adding 100 uL of the intermediate stock to 900 uL of cRPMI. 2) IFNa Stock at 200 ug/mL. Dilute IFNa stock 1:200 by adding 5 uL of stock into the 1000 uL of 100 ng/mL GM-CSF working stock as above to give a combined working stock of 1000 ng/mL of IFNa and 100 ng/mL GM-CSF (10×). Keep it on ice until used.
Lyse/Fix buffer preparation: Dilute 5× Lyse/Fix buffer to 1× using MQ water and keep at 37° C. until used.
BD Phosflow perm buffer III: Keep on ice/fridge.
For orientation: A flow cytometer gives signals particle by particle.
As for `CNc1cc(Nc2ccccc2OC)nc2c(C(=O)NC3CC3)cnn12` [Compound 16, N-cyclopropyl-5-((2-methoxyphenyl)amino)-7-(methylamino)pyrazolo[1,5-a]pyrimidine-3-carboxamide], the IC50 was < 100 nM.
On the same count and under the same terms, the figure for `CNc1cc(Nc2c(F)c(F)cc(F)c2F)nc2c(C(=O)NC3CC3)cnn12` [Compound 17, N-cyclopropyl-7-(methylamino)-5-((2,3,5,6-tetrafluorophenyl)amino)pyrazolo[1,5-a]pyrimidine-3-carboxamide] is < 100 nM; for `CNc1cc(Nc2cccc3c2OCCO3)nc2c(C(=O)NC3CC3)cnn12` [Compound 20, N-cyclopropyl-5-((2,3-dihydrobenzo[b][1,4]dioxin-5-yl)amino)-7-(methylamino)pyrazolo[1,5-a]pyrimidine-3-carboxamide] it is < 100 nM; for `CNc1cc(Nc2ccccc2OC)nc2c(C(=O)NCC(C)(C)CO)cnn12` [Compound 22, N-(3-hydroxy-2,2-dimethylpropyl)-5-((2-methoxyphenyl)amino)-7-(methylamino)pyrazolo[1,5-a]pyrimidine-3-carboxamide] it is < 100 nM.
In the case of `CNc1cc(Nc2cc(F)cc(F)c2OC)nc2c(C(=O)NCC(C)(C)CO)cnn12` [Compound 23, 5-((3,5-difluoro-2-methoxyphenyl)amino)-N-(3-hydroxy-2,2-dimethylpropyl)-7-(methylamino)pyrazolo[1,5-a]pyrimidine-3-carboxamide], the IC50 is < 100 nM.
Turning to `CNc1cc(Nc2c(F)c(F)cc(F)c2F)nc2c(C(=O)NCC(C)(C)CO)cnn12` [Compound 24, N-(3-hydroxy-2,2-dimethylpropyl)-7-(methylamino)-5-((2,3,5,6-tetrafluorophenyl)amino)pyrazolo[1,5-a]pyrimidine-3-carboxamide], the IC50 is < 100 nM.
Turning to `CNc1cc(Nc2cccc3c2OCCO3)nc2c(C(=O)NCC(C)(C)CO)cnn12` [Compound 25, 5-((2,3-dihydrobenzo[b][1,4]dioxin-5-yl)amino)-N-(3-hydroxy-2,2-dimethylpropyl)-7-(methylamino)pyrazolo[1,5-a]pyrimidine-3-carboxamide], the IC50 was < 100 nM.
In the case of `CNc1cc(Nc2cc(F)cc(F)c2OC)nc2c(C(=O)NCC(C)(O)CO)cnn12` (stereo not shown) [Compound 26, 5-((3,5-difluoro-2-methoxyphenyl)amino)-N-(2,3-dihydroxy-2-methylpropyl)-7-(methylamino)pyrazolo[1,5-a]pyrimidine-3-carboxamide], the IC50 was < 100 nM.
In the case of `CNc1cc(Nc2ccc3c(c2)OCCO3)nc2c(C(=O)NC3CC3)cnn12` [Compound 27, N-cyclopropyl-5-((2,3-dihydrobenzo [b][1,4]dioxin-6-yl)amino)-7-(methylamino)pyrazolo[1,5-a]pyrimidine-3-carboxamide], the IC50 is < 100 nM.
On to `CNc1cc(Nc2ccccc2C(=O)OC)nc2c(C(=O)NC3CC3)cnn12` [Compound 28, methyl 2-((3-(cyclopropylcarbamoyl)-7-(methylamino)pyrazolo[1,5-a]pyrimidin-5-yl)amino)benzoate], for which the IC50 lay in the range of 100 to 1000 nM.
The same measure, in the same setting: the figure for `CNc1cc(Nc2cccc(C(=O)OC)c2)nc2c(C(=O)NC3CC3)cnn12` [Compound 29, methyl 3-((3-(cyclopropylcarbamoyl)-7-(methylamino)pyrazolo[1,5-a]pyrimidin-5-yl)amino)benzoate] is 100 to 1000 nM; for `CNc1cc(Nc2cccnc2C)nc2c(C(=O)NC3CC3)cnn12` [Compound 31, N-cyclopropyl-7-(methylamino)-5-((2-methylpyridin-3-yl)amino)pyrazolo[1,5-a]pyrimidine-3-carboxamide] it is > 300 nM.
On to `CNc1cc(Nc2cccn(-c3cc(C)n(C)n3)c2=O)nc2c(C(=O)NC3CC3)cnn12` [Compound 32, N-cyclopropyl-5-((1-(1,5-dimethyl-1H-pyrazol-3-yl)-2-oxo-1,2-dihydropyridin-3-yl)amino)-7-(methylamino)pyrazolo[1,5-a]pyrimidine-3-carboxamide], for which the IC50 lay within 100 to 1000 nM.
As for `CNc1cc(Nc2cccn(-c3ccccn3)c2=O)nc2c(C(=O)NC3CC3)cnn12` [Compound 33, N-cyclopropyl-7-(methylamino)-5-((2-oxo-2H-[1,2′-bipyridin]-3-yl)amino)pyrazolo[1,5-a]pyrimidine-3-carboxamide], the IC50 is < 100 nM.
The same measure, in the same setting: the figure for `CNc1cc(Nc2ccccc2-n2cccn2)nc2c(C(=O)NC3CC3)cnn12` [Compound 34, 5-((2-(1H-pyrazol-1-yl)phenyl)amino)-N-cyclopropyl-7-(methylamino)pyrazolo[1,5-a]pyrimidine-3-carboxamide] is > 300 nM.
As for `CNc1cc(Nc2cscc2C(=O)O)nc2c(C(=O)NC3CC3)cnn12` [Compound 36, 4-((3-(cyclopropylcarbamoyl)-7-(methylamino)pyrazolo[1,5-a]pyrimidin-5-yl)amino)thiophene-3-carboxylic acid], the IC50 was > 300 nM.
Regarding `CCOC(=O)c1cscc1Nc1cc(NC)n2ncc(C(=O)NC3CC3)c2n1` [Compound 37, ethyl 4-((3-(cyclopropylcarbamoyl)-7-(methylamino)pyrazolo[1,5-a]pyrimidin-5-yl)amino)thiophene-3-carboxylate], the IC50 is > 300 nM.
Consider `CCOC(=O)c1nscc1Nc1cc(NC)n2ncc(C(=O)NC3CC3)c2n1` [Compound 38, ethyl 4-((3-(cyclopropylcarbamoyl)-7-(methylamino)pyrazolo[1,5-a]pyrimidin-5-yl)amino)isothiazole-3-carboxylate], for which the IC50 was > 300 nM.
On to `CNc1cc(Nc2csnc2C(=O)OC)nc2c(C(=O)NC3CC3)cnn12` [Compound 39, methyl 4-((3-(cyclopropylcarbamoyl)-7-(methylamino)pyrazolo[1,5-a]pyrimidin-5-yl)amino)isothiazole-3-carboxylate], for which the IC50 is > 300 nM.
With `CNc1cc(Nc2cccn(-c3ccc(OC)nn3)c2=O)nc2c(C(=O)NC3CC3)cnn12` [Compound 40, N-cyclopropyl-5-((1-(6-methoxypyridazin-3-yl)-2-oxo-1,2-dihydropyridin-3-yl)amino)-7-(methylamino)pyrazolo[1,5-a]pyrimidine-3-carboxamide], the IC50 is < 100 nM.
Take `CNc1cc(Nc2cn(C)nc2C(=O)Nc2ccc(N(C)C)cc2)nc2c(C(=O)NC3CC3)cnn12` [Compound 41, N-cyclopropyl-5-((3-((4-(dimethylamino)phenyl)carbamoyl)-1-methyl-1H-pyrazol-4-yl)amino)-7-(methylamino)pyrazolo[1,5-a]pyrimidine-3-carboxamide]: the IC50 was < 100 nM.

Still in this test, the particulars now being: lysed human whole blood; IFNa 100 ng/mL + GM-CSF 10 ng/mL, 20 minutes; pSTAT1 by flow cytometry.
Turning to `CNC(=O)c1cnn2c(NC)cc(Nc3cc(C)cc(C)c3)nc12` [Compound 9, 5-((3,5-dimethylphenyl)amino)-N-methyl-7-(methylamino)pyrazole [1,5-a]pyrimidine-3-carboxamide], the IC50 was in the range of 1000 to 10000 nM.
Take `CNc1cc(Nc2cc(C)cc(C)c2)nc2c(C(N)=O)cnn12` [Compound 10, 5-((3,5-dimethylphenyl)amino)-7-(methylamino)pyrazole[1,5-a]pyrimidine-3-carboxamide]: the IC50 is < 100 nM.
In the case of `CNc1cc(Nc2cc(F)cc(F)c2OC)nc2c(C(N)=O)cnn12` [Compound 13, 5-((3,5-difluoro-2-methoxyphenyl)amino)-7-(methylamino)pyrazole[1,5-a]pyrimidine-3-carboxamide], the IC50 is < 100 nM.
As for `CNc1cc(Nc2cc(F)cc(F)c2OC)nc2c(C(=O)NC3CC3)cnn12` [Compound 19], the IC50 was < 100 nM.

What is called IC50 is the concentration that gives 50% inhibition.
